Assays:
[1] = biological target: T1, potassium ion channel hERG (human Ether-á-go-go-Related Gene) (Homo sapiens, UniProt Q12809); assay: Assay 5 - hERG assay (SyncroPatch 384PE patch clamp, CHO cells); type: cell-based; settings: geometric mean, CHO cells over-expressing hERG, read-out: Assay 5 (hERG Hu CHO IF EPh CR-Syncro) GMean IC50
T1 construct: expressed in transfected cells; host or cells: Chinese hamster ovary K1 (CHO)
Experimental: Assay 5—hERG Assay (Human Ether-á-go-go-Related Gene)
This assay (human Ether-á-go-go-Related Gene) measures activity of the compounds at the potassium ion channel hERG (human Ether-á-go-go-Related Gene).
Experiments were performed on the SyncroPatch 384PE high throughput patch clamp platform at room temperature and medium resistance chips with 4 patch holes per site. Chinese hamster ovary K1 (CHO) cell lines over-expressing the ion channel of choice (hERG) were used in assay-ready format and kept in liquid nitrogen or were used from live culture. Cells were either thawed and diluted in HBSS or were detached from flasks and resuspended in HBSS. HBSS comprised 140 mM NaCl, 4 mM KCl, 10 mM HEPES and 5 mM Glucose (pH 7.4). The internal patch clamp solution was KF 120 mM, KCl 20 mM, HEPES 10 mM, EGTA 10 mM, and 25 μM Escin (pH 7.2). After the sealing process was complete, the external solution was exchanged for external patch clamp solution comprising NaCl 80 mM, KCl 4 mM, HEPES 10 mM, CaCl2 2 mM, MgCl2 1 mM, glucose 5 mM, and NMDG 60 mM (pH 7.4). All solutions were stored at room temperature, except Escin, which was stored at 4° C. All test compounds were dispensed in greiner-bio 384 well plates and tested in a 6 point cumulative assay (final DMSO concentration 0.33%). Only wells that passed previously agreed acceptance criteria for this platform were used in this analysis (30 MegaOhm seal resistance, Z prime>0.4 and current size>0.2 nA).

[2] = biological target: GSK3b (Glycogen synthase kinase-3 beta) (Homo sapiens, UniProt P49841); assay: Assay 6 - GSK3b assay (ThermoFisher, FRET Z-Lyte); type: biochemical; settings: geometric mean; ATP Conc: 10.000 μM; read-out: Assay 6 (GSK3B FRET-Z-Lyte CR) GMean IC50 (μM) ATP Conc: 10.000
GSK3b (Glycogen synthase kinase-3 beta), sequence (P49841 whole entry): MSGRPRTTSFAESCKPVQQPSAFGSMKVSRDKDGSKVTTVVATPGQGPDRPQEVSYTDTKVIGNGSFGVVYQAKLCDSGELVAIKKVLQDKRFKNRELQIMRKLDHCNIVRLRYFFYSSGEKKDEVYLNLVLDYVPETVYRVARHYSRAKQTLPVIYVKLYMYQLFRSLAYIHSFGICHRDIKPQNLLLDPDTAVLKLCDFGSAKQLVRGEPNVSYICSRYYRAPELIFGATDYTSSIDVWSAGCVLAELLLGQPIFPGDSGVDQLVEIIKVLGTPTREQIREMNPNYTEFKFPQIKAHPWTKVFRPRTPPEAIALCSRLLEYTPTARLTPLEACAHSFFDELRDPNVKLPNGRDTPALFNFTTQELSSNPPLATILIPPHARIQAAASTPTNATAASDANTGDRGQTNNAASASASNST
Experimental: This assay measures the activity of the compounds at GSK3b (Glycogen synthase kinase-3 beta).
The test compounds were screened in 1% DMSO (final) in the well. For 10-point titrations, 3-fold serial dilutions are conducted from the starting concentration of 10 μM.
• Bar-coded Corning, low volume NBS, black 384-well plate • 1. 2.5 μL—4× Test Compound or 100 nL 100× plus 2.4 μL kinase buffer • 2. 5 μL—2× Peptide/Kinase Mixture • 3. 2.5 μL—4× ATP Solution • 4. 30-second plate shake • 5. 60-minute Kinase Reaction incubation at room temperature • 6. 5 μL—Development Reagent Solution • 7. 30-second plate shake • 8. 60-minute Development Reaction incubation at room temperature • 9. Read on fluorescence plate reader and analyse the data
In step 2, the 2× GSK3β (GSK3 beta)/Ser/Thr (Glycogen synthase kinase-3 beta/Serine/Threonine) 09 mixture is prepared in 50 mM HEPES (4-(2-hydroxyethyl)-1-piperazineethanesulfonic acid) pH 7.5, 0.01% BRIJ-35, 10 mM MgCl2, 1 mM EGTA (egtazic acid). The final 10 μL Kinase Reaction consists of 0.22-0.92 ng GSK3β (GSK3 beta) and 2 μM Ser/Thr 09 in 50 mM HEPES pH 7.5, 0.01% BRIJ-35, 10 mM MgCl2, 1 mM EGTA.
In step 3 the ATP Solution is diluted to a 4× working concentration in Kinase Buffer (50 mM HEPES pH 7.5, 0.01% BRIJ-35, 10 mM MgCl2, 1 mM EGTA).
In Step 6 the Development Reagent is diluted 1:512 in Development Buffer (10× Novel PKC Lipid Mix: 2 mg/mL Phosphatidyl Serine, 0.2 mg/mL DAG in 20 mM HEPES, pH 7.4, 0.3% CHAPS).
SelectScreen® Kinase Profiling Service uses XLfit from IDBS. The dose response curve is curve fit to model number 205 (sigmoidal dose-response model).

PCSK9 [3] = biological target: T2, PCSK9 (Homo sapiens, UniProt Q8NBP7, G670E/V474I); assay: cell-based
Target sequence in this assay (Q8NBP7 31-152): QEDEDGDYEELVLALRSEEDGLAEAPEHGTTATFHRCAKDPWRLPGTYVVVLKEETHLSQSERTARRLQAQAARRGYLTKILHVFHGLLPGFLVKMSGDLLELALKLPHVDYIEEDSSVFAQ
Target sequence in this assay (Q8NBP7 153-692 V474I/G670E): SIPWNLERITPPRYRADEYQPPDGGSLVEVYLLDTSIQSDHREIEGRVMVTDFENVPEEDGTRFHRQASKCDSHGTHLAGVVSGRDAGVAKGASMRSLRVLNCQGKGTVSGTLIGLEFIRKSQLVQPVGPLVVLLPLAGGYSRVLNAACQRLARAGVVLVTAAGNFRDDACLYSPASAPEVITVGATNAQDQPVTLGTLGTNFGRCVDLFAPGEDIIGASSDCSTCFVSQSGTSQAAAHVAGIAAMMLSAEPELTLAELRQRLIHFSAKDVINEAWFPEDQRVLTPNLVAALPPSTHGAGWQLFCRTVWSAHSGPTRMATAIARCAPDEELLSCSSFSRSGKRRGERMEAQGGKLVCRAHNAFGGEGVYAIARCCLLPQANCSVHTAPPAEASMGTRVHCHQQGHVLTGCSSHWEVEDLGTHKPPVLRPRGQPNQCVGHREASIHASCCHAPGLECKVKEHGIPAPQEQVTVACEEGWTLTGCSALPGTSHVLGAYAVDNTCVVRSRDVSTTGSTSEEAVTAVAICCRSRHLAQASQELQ

PCSK9 [4] = biological target: T2, PCSK9; assay: biochemical
Target sequence in this assay (Q8NBP7 with tags, fused parts or gaps V474I/G670E): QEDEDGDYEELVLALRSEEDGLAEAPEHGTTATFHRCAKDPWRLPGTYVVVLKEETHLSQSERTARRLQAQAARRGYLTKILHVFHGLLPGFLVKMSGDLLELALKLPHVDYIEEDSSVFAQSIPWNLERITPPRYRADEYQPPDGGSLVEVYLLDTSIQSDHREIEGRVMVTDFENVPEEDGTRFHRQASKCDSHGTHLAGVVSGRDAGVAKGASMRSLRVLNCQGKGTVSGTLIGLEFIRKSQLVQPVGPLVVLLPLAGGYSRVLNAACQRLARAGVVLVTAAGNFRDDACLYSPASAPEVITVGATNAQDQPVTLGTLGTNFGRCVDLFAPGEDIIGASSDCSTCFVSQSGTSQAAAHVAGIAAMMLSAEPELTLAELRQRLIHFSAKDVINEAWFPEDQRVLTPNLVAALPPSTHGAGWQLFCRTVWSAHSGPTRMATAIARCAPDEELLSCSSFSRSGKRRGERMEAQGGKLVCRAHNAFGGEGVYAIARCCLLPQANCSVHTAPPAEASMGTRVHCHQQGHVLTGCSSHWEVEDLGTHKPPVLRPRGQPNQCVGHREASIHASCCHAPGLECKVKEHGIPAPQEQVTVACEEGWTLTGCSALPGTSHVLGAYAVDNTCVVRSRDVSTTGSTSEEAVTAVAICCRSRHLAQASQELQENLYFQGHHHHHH

T1 sequence (Q12809 whole entry): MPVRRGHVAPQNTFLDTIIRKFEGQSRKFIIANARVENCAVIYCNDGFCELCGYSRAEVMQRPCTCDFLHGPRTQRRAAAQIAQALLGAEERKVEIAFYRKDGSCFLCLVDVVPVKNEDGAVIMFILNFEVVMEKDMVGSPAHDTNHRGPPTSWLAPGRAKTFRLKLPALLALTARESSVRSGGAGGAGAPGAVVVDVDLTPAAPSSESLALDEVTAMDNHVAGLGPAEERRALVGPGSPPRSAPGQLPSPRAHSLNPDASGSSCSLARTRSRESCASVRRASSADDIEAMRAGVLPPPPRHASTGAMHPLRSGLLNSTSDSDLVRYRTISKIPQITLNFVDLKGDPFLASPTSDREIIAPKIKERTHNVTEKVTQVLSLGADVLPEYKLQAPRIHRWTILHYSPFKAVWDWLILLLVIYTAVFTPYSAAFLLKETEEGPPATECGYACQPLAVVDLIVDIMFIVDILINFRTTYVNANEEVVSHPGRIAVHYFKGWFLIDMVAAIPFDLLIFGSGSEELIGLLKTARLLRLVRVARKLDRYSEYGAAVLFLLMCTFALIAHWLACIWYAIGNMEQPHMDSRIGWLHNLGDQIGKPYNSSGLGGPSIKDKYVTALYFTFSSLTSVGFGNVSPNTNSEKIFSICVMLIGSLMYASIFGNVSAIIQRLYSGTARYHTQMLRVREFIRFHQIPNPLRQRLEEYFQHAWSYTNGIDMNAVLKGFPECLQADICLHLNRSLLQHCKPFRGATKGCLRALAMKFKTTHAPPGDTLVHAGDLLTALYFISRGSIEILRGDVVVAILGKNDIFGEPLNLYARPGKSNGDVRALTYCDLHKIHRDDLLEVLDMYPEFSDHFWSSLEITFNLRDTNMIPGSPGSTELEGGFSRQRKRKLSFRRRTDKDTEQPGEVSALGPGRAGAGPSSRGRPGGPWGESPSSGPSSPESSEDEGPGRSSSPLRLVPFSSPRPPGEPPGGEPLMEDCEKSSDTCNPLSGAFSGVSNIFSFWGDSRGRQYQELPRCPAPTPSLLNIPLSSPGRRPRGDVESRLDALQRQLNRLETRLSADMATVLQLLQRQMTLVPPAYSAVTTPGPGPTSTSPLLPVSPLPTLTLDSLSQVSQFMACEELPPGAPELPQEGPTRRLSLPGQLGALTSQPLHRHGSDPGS

`N#Cc1ccc(=O)n(-c2ccc(N[C@H]3CC[C@H](Nc4nc5cccnc5[nH]4)C3)nc2)c1` [Example 43, 6′-(((1S,3S)-3-((3H-Imidazo[4,5-b]pyridin-2-yl)amino)cyclopentyl)amino)-2-oxo-2H-[1,3′-bipyridine]-5-carbonitrile] was tested, and the IC50 [1] was greater than 40000 nM, the IC50 [2] was greater than 10 µM and the IC50 (PCSK9 [3]) was 200 nM. For the same compound, the IC50 (PCSK9 [4]) was 4.2 nM.

With `O=c1c(C(F)(F)F)cccn1-c1ccc(N[C@H]2CC[C@H](Nc3nc4cccnc4[nH]3)C2)nc1` [Example 64, 6′-(((1S,3S)-3-((3H-Imidazo[4,5-b]pyridin-2-yl)amino)cyclopentyl)amino)-3-(trifluoromethyl)-2H-[1,3′-bipyridin]-2-one] the IC50 [1] was greater than 40000 nM, the IC50 [2] was greater than 10 µM and the IC50 (PCSK9 [3]) was 99 nM. For the same compound, the IC50 (PCSK9 [4]) was 1.7 nM.

`O=c1c(OC(F)(F)F)cccn1-c1ccc(N[C@H]2CC[C@H](Nc3nc4cccnc4[nH]3)C2)nc1` [Example 63, 6′-(((1S,3S)-3-((3H-Imidazo[4,5-b]pyridin-2-yl)amino)cyclopentyl)amino)-3-(trifluoromethoxy)-2H-[1,3′-bipyridin]-2-one] showed an IC50 [1] greater than 40000 nM, an IC50 [2] greater than 10 µM and an IC50 (PCSK9 [3]) of 51 nM. It also gave an IC50 (PCSK9 [4]) of 2.1 nM.

`O=c1c(Cl)cccn1-c1ccc(N[C@H]2CC[C@H](Nc3nc4cccnc4[nH]3)C2)nc1` [Example 42, 6′-(((1S,3S)-3-((3H-Imidazo[4,5-b]pyridin-2-yl)amino)cyclopentyl)amino)-3-chloro-2H-[1,3′-bipyridin]-2-one] was tested, and the IC50 [1] was greater than 40000 nM, the IC50 [2] was 6.14 µM and the IC50 (PCSK9 [3]) was 77 nM. The IC50 (PCSK9 [4]) was 0.9 nM.

Compound `CSc1cnc2[nH]c(N[C@H]3CC[C@H](Nc4ccc(-n5ccccc5=O)cn4)C3)nc2c1` [Example 59, 6′-(((1S,3S)-3-((6-(Methylthio)-3H-imidazo[4,5-b]pyridin-2-yl)amino)cyclopentyl)amino)-2H-[1,3′-bipyridin]-2-one] has an IC50 [1] greater than 13500 nM, an IC50 [2] of 0.794 µM and an IC50 (PCSK9 [3]) of 106 nM. It also gave an IC50 (PCSK9 [4]) of 3.7 nM.

For `O=c1ccncn1-c1ccc(N[C@H]2CC[C@H](Nc3nc4cccnc4[nH]3)C2)nc1` [Example 29, 3-(6-(((1S,3S)-3-((3H-Imidazo[4,5-b]pyridin-2-yl)amino)cyclopentyl)amino)pyridin-3-yl)pyrimidin-4(3H)-one], the IC50 [1] was greater than 40000 nM, the IC50 [2] was greater than 10 µM and the IC50 (PCSK9 [3]) was 68 nM. The IC50 (PCSK9 [4]) was 5.7 nM.

For `O=c1ccccn1-c1ccc(N[C@H]2CC[C@H](Nc3nc4cc(C(F)(F)F)cnc4[nH]3)C2)nc1` [Example 62, 6′-(((1S,3S)-3-((6-(Trifluoromethyl)-3H-imidazo[4,5-b]pyridin-2-yl)amino)cyclopentyl)amino)-2H-[1,3′-bipyridin]-2-one], the IC50 [1] was greater than 40000 nM, the IC50 [2] was 0.153 µM and the IC50 (PCSK9 [3]) was 89 nM. The IC50 (PCSK9 [4]) was 2.2 nM.

`Cn1c(=O)n(-c2ccc(N[C@H]3CC[C@H](Nc4nc5cccnc5[nH]4)C3)nc2)c2ccccc21` [Example 36, 1-(6-(((1S,3S)-3-((3H-Imidazo[4,5-b]pyridin-2-yl)amino)cyclopentyl)amino)pyridin-3-yl)-3-methyl-1,3-dihydro-2H-benzo[d]imidazol-2-one] was tested, and the IC50 [1] was 25800 nM, the IC50 [2] was greater than 10 µM and the IC50 (PCSK9 [3]) was 60 nM. For the same compound, the IC50 (PCSK9 [4]) was 0.6 nM.

`COc1ccc(=O)n(-c2ccc(N[C@H]3CC[C@H](Nc4nc5cccnc5o4)C3)nc2)c1` [Example 14, 5-Methoxy-6′-(((1S,3S)-3-(oxazolo[5,4-b]pyridin-2-ylamino)cyclopentyl)amino)-2H-[1,3′-bipyridin]-2-one] showed an IC50 [1] greater than 40000 nM, an IC50 [2] of 0.423 µM and an IC50 (PCSK9 [3]) of 632 nM. The IC50 (PCSK9 [4]) was 25.5 nM.

With `O=c1ccc(Cl)cn1-c1ccc(N[C@H]2CC[C@H](Nc3nc4cccnc4[nH]3)C2)nc1` [Example 71, 6′-(((1S,3S)-3-((3H-Imidazo[4,5-b]pyridin-2-yl)amino)cyclopentyl)amino)-5-chloro-2H-[1,3′-bipyridin]-2-one] the IC50 [1] was greater than 40000 nM, the IC50 [2] was 2.83 µM and the IC50 (PCSK9 [3]) was 123 nM. The IC50 (PCSK9 [4]) was 2.6 nM.

In the case of `O=c1ccccn1-c1ccc(N[C@H]2CC[C@H](Nc3nc4cc(Cl)cnc4[nH]3)C2)nc1` [Example 47, 6′-(((1S,3S)-3-((6-Chloro-3H-imidazo[4,5-b]pyridin-2-yl)amino)cyclopentyl)amino)-2H-[1,3′-bipyridin]-2-one], the IC50 [1] is reported as greater than 40000 nM, the IC50 [2] is reported as 0.331 µM and the IC50 (PCSK9 [3]) is reported as 64 nM. The IC50 (PCSK9 [4]) was 1.6 nM.

Work on `Cc1ncc(-c2ccc(=O)n(-c3ccc(N[C@H]4CC[C@H](Nc5nc6cc(Br)cnc6[nH]5)C4)nc3)c2)cn1` [Example 52, 6′-(((1S,3S)-3-((6-Bromo-3H-imidazo[4,5-b]pyridin-2-yl)amino)cyclopentyl)amino)-5-(2-methylpyrimidin-5-yl)-2H-[1,3′-bipyridin]-2-one] yielded an IC50 [1] greater than 40000 nM, an IC50 [2] of 0.178 µM and an IC50 (PCSK9 [3]) of 590 nM. The IC50 (PCSK9 [4]) was 4.5 nM.

For `O=c1ccccn1-c1ccc(N[C@H]2CC[C@H](Nc3nc4nccnc4[nH]3)C2)nc1` [Example 80, 6′-(((1S,3S)-3-((1H-Imidazo[4,5-b]pyrazin-2-yl)amino)cyclopentyl)amino)-2H-[1,3′-bipyridin]-2-one], the IC50 [1] was greater than 40000 nM, the IC50 [2] was 0.305 µM and the IC50 (PCSK9 [3]) was 158 nM. The IC50 (PCSK9 [4]) was 5.1 nM.

Work on `COc1cnc2[nH]c(N[C@H]3CC[C@H](Nc4ccc(-n5ccccc5=O)cn4)C3)nc2c1` [Example 57, 6′-(((1S,3S)-3-((6-Methoxy-3H-imidazo[4,5-b]pyridin-2-yl)amino)cyclopentyl)amino)-2H-[1,3′-bipyridin]-2-one] yielded an IC50 [1] greater than 40000 nM, an IC50 [2] of 5.45 µM and an IC50 (PCSK9 [3]) of 66 nM. For the same compound, the IC50 (PCSK9 [4]) was 4.3 nM.

`N#Cc1cccn(-c2ccc(N[C@H]3CC[C@H](Nc4nc5cccnc5s4)C3)nc2)c1=O` [Example 23, 2-Oxo-6′-(((1S,3S)-3-(thiazolo[5,4-b]pyridin-2-ylamino)cyclopentyl)amino)-2H-[1,3′-bipyridine]-3-carbonitrile] showed an IC50 [1] of 24600 nM, an IC50 [2] greater than 10 µM and an IC50 (PCSK9 [3]) of 92 nM. For the same compound, the IC50 (PCSK9 [4]) was 1.2 nM.

With `O=c1ccc(OC(F)F)cn1-c1ccc(N[C@H]2CC[C@H](Nc3nc4cccnc4o3)C2)nc1` [Example 78, 5-(Difluoromethoxy)-6′-(((1S,3S)-3-(oxazolo[5,4-b]pyridin-2-ylamino)cyclopentyl)amino)-2H-[1,3′-bipyridin]-2-one] the IC50 [1] was 39600 nM, the IC50 [2] was greater than 10 µM and the IC50 (PCSK9 [3]) was 367 nM. The IC50 (PCSK9 [4]) was 18.9 nM.

`N#Cc1ccc(=O)n(-c2ccc(N[C@H]3CC[C@H](Nc4nc5cccnc5s4)C3)nc2)c1` [Example 26, 2-Oxo-6′-(((1S,3S)-3-(thiazolo[5,4-b]pyridin-2-ylamino)cyclopentyl)amino)-2H-[1,3′-bipyridine]-5-carbonitrile] showed an IC50 [1] of 19700 nM, an IC50 [2] greater than 10 µM and an IC50 (PCSK9 [3]) of 168 nM. For the same compound, the IC50 (PCSK9 [4]) was 6.8 nM.

`Cn1cccc(-c2cnc(N[C@H]3CC[C@H](Nc4nc5cccnc5[nH]4)C3)nc2)c1=O` [Example 39, 3-(2-(((1S,3S)-3-((3H-Imidazo[4,5-b]pyridin-2-yl)amino)cyclopentyl)amino)pyrimidin-5-yl)-1-methylpyridin-2(1H)-one] gave an IC50 [1] greater than 40000 nM, an IC50 [2] greater than 10 µM and an IC50 (PCSK9 [3]) of 93 nM. The IC50 (PCSK9 [4]) was 6.1 nM.

Work on `O=c1c(OC(F)F)cccn1-c1ccc(N[C@H]2CC[C@H](Nc3nc4cccnc4o3)C2)nc1` [Example 79, 3-(Difluoromethoxy)-6′-(((1S,3S)-3-(oxazolo[5,4-b]pyridin-2-ylamino)cyclopentyl)amino)-2H-[1,3′-bipyridin]-2-one] yielded an IC50 [1] of 4570 nM, an IC50 [2] greater than 10 µM and an IC50 (PCSK9 [3]) of 123 nM. It also gave an IC50 (PCSK9 [4]) of 4.1 nM.
